# Measurements as given in patent publication US11311475B2, “Skin care compositions containing peptide compound and aphanothece sacrum exopolysaccharide extract” (The Procter & Gamble Company, priority 2019, dated 2022).
# Test: Franz diffusion cell skin penetration assay
# Assay type: in vitro ADME, human
# Conditions: for pal-KT Skin Penetration: Surface Residual / pal-KT Skin Penetration: Dermis / pal-KT Skin Penetration: Epidermis / pal-KT Skin Penetration: Total Penetration / pal-KT Skin Penetration: Receptor: pal-KT 5 ppm; for pal-KT Skin Penetration: Surface Residual: 14C-spiked, 24 h after topical dose on human skin; for pal-KT Skin Penetration: Total Penetration: epidermis+dermis+receptor; for pal-KT Skin Penetration: Receptor: receptor solution (transdermal)
# Protocol: The method is described. […] (40 ppm) is assessed using the Franz diffusion cell assay (4, T. J. Franz, J. Invest. Dermatol. 64: 190-195, 1975; T. J. Franz, et al., Skin Pharmacol. Physiol. 22: 276-286, 2009). The peptides are formulated in a skin care silicone-in-water (SWF) formulation with or without 10 wt % SACRAN. The formulations are spiked with ^14C-pal-KT or ^3H-PKEK. Twenty-four hours after topically dosed on human skin, residual product is removed from the skin surface, the epidermal and dermal layers were separated, and receptor solutions (transdermal) are collected.
# [1] = SWF + 10 wt % SACRAN versus SWF, 24 h, human skin
# [2] = SWF formulation without SACRAN (control), 24 h
smiles,measurement,setting,value
"CCCCCCCCCCCCCCCC(=O)N[C@@H](CCCCN)C(=O)N[C@H](C(=O)O)[C@@H](C)O [pal-KT, palmitoyl-lysine-threonine]",amount recovered from the surface of the skin with SACRAN versus without (in words),[1],statistically significant lower amount
same,effect of addition of SACRAN on skin penetration (in words),[1],increased
same,pal-KT Skin Penetration: Surface Residual,SWF + 10 wt % SACRAN,173.2 ± 18.1 ng/cm^2
same,pal-KT Skin Penetration: Dermis,"SWF + 10 wt % SACRAN, 24 h",14.8 ± 1.65 ng/cm^2
same,pal-KT Skin Penetration: Epidermis,"SWF + 10 wt % SACRAN, 24 h",128.3 ± 17.1 ng/cm^2
same,pal-KT Skin Penetration: Total Penetration,"SWF + 10 wt % SACRAN, 24 h",143.3 ± 18.1 ng/cm^2
same,pal-KT Skin Penetration: Receptor,"SWF + 10 wt % SACRAN, 24 h",0.09 ± 0.07 ng/cm^2
same,increase in skin penetration by addition of SACRAN to SWF,"SWF + SACRAN versus SWF, single topical application",60%
same,pal-KT Skin Penetration: Surface Residual,SWF formulation without SACRAN (control),228.5 ± 10.2 ng/cm^2
same,pal-KT Skin Penetration: Dermis,[2],14.3 ± 1.4 ng/cm^2
same,pal-KT Skin Penetration: Epidermis,[2],72.5 ± 9.5 ng/cm^2
same,pal-KT Skin Penetration: Total Penetration,[2],88.0 ± 10.2 ng/cm^2
same,pal-KT Skin Penetration: Receptor,[2],0.14 ± 0.14 ng/cm^2
